Test results as given in patent publication US12351652B2, “Hemagglutinin-binding peptide” (priority 2019, dated 2025).

System: influenza virus A/Puerto Rico/8/34 (H1N1)
Set-up: species or system BALB/cA Jcl [SPF] mice
Conditions: mouse, in vivo, iv

For `CCC(CC)[C@H](NC(C)=O)[C@@H]1[C@H](O)[C@@H](C(=O)O)C[C@H]1N=C(N)N` [peramivir, reference compound], the survival rate was 20%.
